According to patent US4089966A, “5-N-(3-Amino-2-hydroxy-propyl)-amino-1,2,4-oxadiazole derivatives, processes for their preparation and applications thereof” (Aron Sarl, priority 1975, dated 1978):
Structures can show the parent of a compound that is named as a salt. Where two headings read alike, the source gives them in different places.

Columns and labels:
[1] = system: BaCl2 -induced contraction of the duodenum; assay: Antispasmodic activity compared to Papaverine (BaCl2-induced contraction of the duodenum); settings: Papaverine = 1
[2] = system: arrhythmia induced by Strophantine in combination with adrenaline; assay: Preventive action on arrhythmia induced by perfusion of K-Strophantine in combination with adrenaline; format: in vivo, guinea-pits; settings: K-Strophantine 0.I5mg/ml + Adrenaline 5μg/ml, ±SD, control 1.21±0.33
Method: (§1) a. Two Examples are given to show the preventive action, by the intravenous route:
(§2) 1. in guinea-pits, on arrhythmia induced by Strophantine alone or in combination with adrenaline;
(§3) The various compounds of the above Table are administered just prior to
(§4) perfusion of the arrhythmogenic materials (K-Strophantine,
(§5) K-Strophantine-Adrenaline, Aconitine). The values represent the period of
(§6) time ± SD (standard deviation) before the first signs of arrhythmia

[3] = system: surface anesthesia in rabbits; assay: Surface anesthesia in rabbits compared to Butacaine; format: in vivo; settings: Butacaine = 1
[4] = system: arrhythmia induced by Strophantine alone; assay: Preventive action on arrhythmia induced by perfusion of K-Strophantine alone; format: in vivo, guinea-pits; settings: K-Strophantine 0.I5mg/ml, 0.5ml/mn, ±SD, control 2.45±0.22
Method: as §1, §2, §3, §4, §5, §6

[5] = Acute toxicity (LD 50%, semi-logarithmic technique of Lichfield and Wilcoxon); format: in vivo; settings: for LD50: in vivo
Text: Each value represents the LD 50% expressed as mg/kg, according to the semi-logarithmic technique disclosed by Lichfield and Wilcoxon.

[6] = system: conduction anesthesia in guinea-pigs; assay: Conduction anesthesia in guinea-pigs compared to Xylocaine; format: in vivo; settings: Xylocaine = 1
[7] = system: aconitine-induced rhythm disorders; assay: Preventive action on aconitine-induced rhythm disorders; format: in vivo, rats; settings: Aconitine 50mg/l, 0.2ml/mn, ±SD, control 85±15
Method: as §1
2. in rats, on aconitine-induced rhythm disorders.
as §3, §4, §5, §6

[8] = Chronic toxicity, oral, 3 months, young adult rats; format: in vivo, rats of Sprague Dawley (Charles River) strain; settings: oral, 25, 75 and 150 mg/kg during 3 months
Method: The compound of Example 1 was administered orally to young adult rats of Sprague Dawley (Charles River) strain, at dosages of 25, 75 and 150 mg/kg during 3 months.

[9] = Chronic toxicity, intravenous, 1 month, young male adult mice; format: in vivo; settings: 1 and 5 mg/kg during 1 month
Method: The compound of Example 1 was also administered intravenously to young male adult mice, at dosages of 1 and 5 mg/kg during 1 month.

[10] = system: disorders of the cardiac rhythm; assay: Clinical tests, oral administration in patients suffering from disorders of the cardiac rhythm; format: in vivo; settings: oral, 200, 400 and 600 mg
[11] = system: disorders of the cardiac rhythm in non-anesthetized dogs 24 hours after coronary ligation; assay: Curative activity on disorders of the cardiac rhythm 24 hours after coronary ligation (method according to Harris); format: in vivo; settings: for Percent sinus rhythm after administration of the compound: extreme values in parenthesis
Text: b. An Example is given to show the curative activity by the oral route.
As is apparent from following Table IV, the effect is a function of the disage administered.

[12] = intravenous route, read-out: LD50, intravenous route
[13] = oral route, read-out: LD50, oral route

Row | Compound | Ratio between the dosage of Papaverine and the dosage of Compound (1) producing the same antispasmodic activity [1] | Ratio between the activity of compound (I) and the activity of Butacaine for surface anesthesia, on administration of a same dosage [3] | LD50 [5, 12] | LD50 [5, 13] | Ratio between the activity of compound (I) and the activity of Xylocaine for conduction anesthesia, on administration of a same dosage [6] | other results
1 | COc1ccc(Cc2nccc3cc(OC)c(OC)cc23)cc1OC [Papaverine, reference compound] | 1 |  |  |  |  | 
2 | CCN(CC)CC(O)CNc1nc(-c2ccccc2)no1 (stereo not drawn) [Example 2] | 1 | 1 | 55 mg/kg | 700 mg/kg | 1.4 | period of time before the first signs of arrhythmia appear ([2]; 10 mg/kg intravenous): 2.73±0.5 decimal minutes; period of time before the first signs of arrhythmia appear ([4]; 10 mg/kg intravenous): 3.04±0.52 decimal minutes; period of time before the first signs of arrhythmia appear ([7]; 10 mg/kg intravenous): 155 ± 32 s
3 | CCN(CC)CC(O)CN(C)c1nc(-c2ccncc2)no1 (stereo not drawn) [Example 11] | 0.2 | 1.5 | 100 mg/kg | 750 mg/kg | 1 | period of time before the first signs of arrhythmia appear ([2]; 10 mg/kg intravenous): 1.3±0.3 decimal minutes; period of time before the first signs of arrhythmia appear ([7]; 20 mg/kg intravenous): 129 ± 21 s
4 | CCNCC(O)CN(CC)c1nc(-c2ccccc2)no1 (stereo not drawn) [Example 12] | 0.8 | 1 |  |  | 1.65 | 
5 | CN1CCN(CC(O)CNc2nc(-c3ccccc3)no2)CC1 (stereo not drawn) [Example 10] |  |  |  | 750 mg/kg |  | insoluble (entry in place of the intravenous LD50) ([5]; intravenous route): inso-
6 | C=CCN(CC(O)CN(CC)CC)c1nc(-c2ccccc2)no1 (stereo not drawn) [Example 8] | 2.5 | 1.5 |  |  | 1 | 
7 | CCN(CC)CC(O)CN(C)c1nc(-c2ccccc2)no1 (stereo not drawn) [Example 1, 5-N-(3-diethylamino-2-hydroxy-propyl)-N-methylamino-3-phenyl-1,2,4-oxadiazole fumarate hydrate] | 1.5 | 1.5 | 30 mg/kg | 280 mg/kg | 1 | change of weight of the organs on autopsy [8]: No change of weight of the organs was found; hematologic examination, biochemical blood tests and urinalysis [8]: No anomaly was detected; histological anomaly on anatomicopathological examination [8]: No histological anomaly, and particularly no liver, kidney or brain injury was found; period of time before the first signs of arrhythmia appear ([2]; 10 mg/kg intravenous): 1.62±0.42 decimal minutes; glycemia and serum transaminase level [9]: comparable in the treated animals and in the control animals; hematological examination [9]: No substantial modifications were found; histological anomaly on autopsy [9]: No histological anomaly was found on autopsy, particularly no cytologic injury of the liver, the kidneys, the pancreas, the heart or the brain; local tolerance of the injections [9]: well tolerated locally; effects in patients suffering from disorders of the cardiac rhythm [10]: beneficial effects; Tolerance ([10]; patients): good; period of time before the first signs of arrhythmia appear ([4]; 5 mg/kg intravenous): 3.27±0.4 decimal minutes; period of time before the first signs of arrhythmia appear ([4]; 10 mg/kg intravenous): 3.18±0.33 decimal minutes; Percent sinus rhythm after administration of the compound ([11]; 10 mg/kg oral, 3 tests, prior to administration 5%(0-15%)): 25%(0-65%); Percent sinus rhythm after administration of the compound ([11]; 25 mg/kg oral, 8 tests, prior to administration 5.6% (0-18%)): 59%(5-100%); Percent sinus rhythm after administration of the compound ([11]; 50 mg/kg oral, 6 tests, prior to administration 7.6% (0-20%)): 71.6% (25-100%); curative activity on disorders of the cardiac rhythm after coronary ligation (in words) ([11]; non-anesthetized dogs, oral route): corrects the disorders of the cardiac rhythm; period of time before the first signs of arrhythmia appear ([7]; 5 mg/kg intravenous): 141 ± 28 s; period of time before the first signs of arrhythmia appear ([7]; 10 mg/kg intravenous): 126 ± 23 s
8 | CCN(CC)CC(O)CNc1nc(-c2ccc(F)cc2)no1 (stereo not drawn) [Example 4, 5-(3-diethylamino-2-hydroxy-propyl)-amino-3-(4-fluorophenyl)-1,2,4-oxadiazole fumarate] |  | 1.4 |  | 750 mg/kg | 1.5 | 
9 | CCN(CC)CC(O)CN(CC)c1nc(-c2ccccc2)no1 (stereo not drawn) [Example 5] | 3 | 1.7 | 18 mg/kg | 200 mg/kg | 1.7 | period of time before the first signs of arrhythmia appear ([2]; 5 mg/kg intravenous): 1.60±0.35 decimal minutes; period of time before the first signs of arrhythmia appear ([4]; 5 mg/kg intravenous): 3.43±0.51 decimal minutes; period of time before the first signs of arrhythmia appear ([7]; 5 mg/kg intravenous): 119 ± 15.5 s
10 | CCCN(CC(O)CN(CC)CC)c1nc(-c2ccccc2)no1 (stereo not drawn) [Example 7, 5-[N-(3-diethylamino-2-hydroxy-propyl)-N-propyl]amino-3-phenyl-1,2,4-oxadiazole fumarate hydrate] |  |  |  | 250 mg/kg |  | period of time before the first signs of arrhythmia appear ([2]; 2.5 mg/kg intravenous): 1.74±0.16 decimal minutes; period of time before the first signs of arrhythmia appear ([4]; 2.5 mg/kg intravenous): 2.85±0.1 decimal minutes; insoluble (entry in place of the intravenous LD50) ([5]; intravenous route): inso-; period of time before the first signs of arrhythmia appear ([7]; 2.5 mg/kg intravenous): 185 ± 48 s
11 | CCCN(CCC)CC(O)CN(C)c1nc(-c2ccccc2)no1 (stereo not drawn) [Example 9, 5-N-(3-dipropylamino-2-hydroxy-propyl)-N-methylamino-3-phenyl-1,2,4-oxadiazole fumarate hydrate] | 4 | 1.65 | 50 mg/kg | 250 mg/kg | 1.6 | period of time before the first signs of arrhythmia appear ([2]; 2.5 mg/kg intravenous): 1.77±0.08 decimal minutes
